Results on 12 molecules are retold here after patent US6403831B1, “Substituted benzylidene indenyl formamides, acetamides and propionamides” (Cell Pathways, Inc., priority 1996, dated 2002).

The subject of experiment [1] is human colon carcinoma cell line, SW-480. Description: Growth inhibition, Sulforhodamine B (SRB) protein binding assay. As to conditions: SW-480 cell line, six days continuous exposure. In kind it is cell-based. The method, boiled down:
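SW-480 cells at 1000 cells/well exposed continuously to compound for six days in RPMI with 5% FCS, 0.1% DMSO vehicle. Growth measured by sulforhodamine B staining and optical density relative to controls; IC50 read graphically from mean values, three wells per concentration.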

The next experiment has as its target T1, COX I (Ovis aries, UniProt P05979).
T1 construct: The COX was purified form ram seminal vesicles; from tissue; host or cells: ram seminal vesicles
T1 sequence (P05979 25-600): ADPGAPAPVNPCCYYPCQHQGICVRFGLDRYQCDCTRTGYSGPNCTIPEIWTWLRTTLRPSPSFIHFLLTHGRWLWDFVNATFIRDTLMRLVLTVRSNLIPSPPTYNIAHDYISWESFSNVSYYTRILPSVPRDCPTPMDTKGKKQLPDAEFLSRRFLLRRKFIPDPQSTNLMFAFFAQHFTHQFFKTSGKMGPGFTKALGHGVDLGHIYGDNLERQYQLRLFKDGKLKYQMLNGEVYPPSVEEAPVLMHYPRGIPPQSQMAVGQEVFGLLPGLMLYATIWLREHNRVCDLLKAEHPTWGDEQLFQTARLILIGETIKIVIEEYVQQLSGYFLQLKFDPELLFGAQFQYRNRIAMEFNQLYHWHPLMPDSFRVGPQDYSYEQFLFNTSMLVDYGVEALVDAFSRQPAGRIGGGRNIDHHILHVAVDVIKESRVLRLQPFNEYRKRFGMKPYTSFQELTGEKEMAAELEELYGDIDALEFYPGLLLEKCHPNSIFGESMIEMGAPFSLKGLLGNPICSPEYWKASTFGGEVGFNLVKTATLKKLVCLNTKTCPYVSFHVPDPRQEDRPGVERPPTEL
Kind of experiment: Cyclooxygenase (COX) inhibition, purified COX. The settings on record: purified COX from ram seminal vesicles; for COX I % Inhibition (values marked *): values marked *: 1000 μM test compound; for COX I % Inhibition (100 μM): 100 μM test compound, arachidonic acid 100 μM. Format: biochemical. The method, boiled down: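 Ram seminal vesicle COX, purified, was incubated 2.0 min at 37° C with 100 μM arachidonic acid with or without test compounds. Reactions stopped with TCA; activity read as absorbance at 530 nm.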

In experiment [2] the test system is HT-29 human colon carcinoma cells. Kind of experiment: Apoptosis by morphology (acridine orange/ethidium bromide, condensed chromatin). Format: cell-based. As to conditions: HT-29 cells. On the procedure: Apoptosis was measured using an assay of cell death based on morphological characteristics of apoptotic cells (i.e., condensed chromatin). Drug preparation and cell culture conditions were the same as for the SRB assay described above, except that HT-29 human colon carcinoma cells were employed/Confluent cultures were established in 12.5 cm^2 flasks by plating 0.5×10^6 cells/flask. The cultures were assayed for apoptosis by fluorescent microscopy following labeling with acridine orange and ethidium bromide. Floating and attached cells were collected by trypsinization and washed three times in PBS. One ml aliquots were centrifuged (3 g). The pellet was resuspended in 25 μl media and 1 μl of a dye mixture containing 100 μg/ml acridine orange and 100 μg/ml ethidium bromide prepared in PBS and mixed gently. Ten μl of mixture was placed on a microscope slide and covered with a 22 mm^2 coverslip and examined under 40×dry objectives using epillumination and filter combination.
An observer blinded to the identity of the treatments scored at least 100 cells per sample. Apoptotic cells were identified by nuclear condensation of chromatin stained by the acridine orange or ethidium bromide.

The subject of experiment [3] is SW-480 colon adenocarcinoma cells. Description: Apoptosis by DNA fragmentation (Cell Death Detection ELISA plus). Format: cell-based, human. As to conditions: SW-480 cells, 48 hrs; for pEC50: by software or estimated from effective concentration range; for DNA Fragmentation FS (100 μM): fold stimulation FS=ODmax/ODveh. On the procedure:
Apoptosis was also measured based on the amount of fragmented DNA contained in cell lysates. Briefly, SW-480 colon adenocarcinoma cells were plated in 96-well microtitre plates (“MTP”) at a density of 10K cells/well in 180 μl and incubated for 24 hrs. Cells were then treated with 20 μl aliquots of appropriately diluted compound, and allowed to incubate for an additional 48 hrs.
After the incubation, samples were prepared according to the following steps. The MTP was centrifuged (15 min., 1000 rpm) and the supernatant was carefully removed by fast inversion of the MTP. The cell pellents in each well were then resuspended in ^200 μl lysis buffer and incubated for 45 min. at room temperature to lyse the cells. The lysates were then centrifuged (15 min., 1000 rpm) and 20 μl aliquots of the supernatant (=cytoplasmic fraction) were transferred into the streptavidin coated MTP for analysis. Care was taken not to shake the lysed pellets in the MTP (=cell nucleii containing high molecular weight, unfragmented DNA). Samples were analyzed immediately, because storage at 4 C or −20 C reduces the ELISA-signals.
Samples were then processed according to a DNA fragmentation assay protocol, and dose-response curves were generated based on optical density readings. Quantification of DNA was done by a commercially available photometric enzyme-immunoassay manufactured by Mannheim-Boehringer under the name “Cell Death Detection ELISA^plus”. The assay is based on a quantitative sandwich-enzyme-immunoassay-principle using mouse monoclonal antibodies directed against DNA and histones, respectively. This allows the specific determination of mono and oligonucleosomes in the cytoplasmatic fraction of cell lysates. In brief, the assay procedure is as follows. The sample (cell-lysate, serum, culture-supernatant etc.) is placed into a streptavidin-coated MTP. Subsequently, a mixture of anti-histone-biotin and anti-DNA-POD are added and incubated for 2 hours. During the incubation period, the anti-histone antibody binds to the histone-component of the nucleosomes and simultaneously fixes the immunocomplex to the streptavidin-coated MTP via its biotinylation. Additionally, the anti-DNA-POD antibody reacts with the DNA component of the nucleosomes. After removal of unbound antibodies by a washing step, the amount of nucleosomes is quantified by the POD retained in the immunocomplex. POD is determined photometrically with ABTS® (2,2′-Azino-di[3-ethylbenzthiazolin-sulfonat])* as substrate.
Fold stimulation (FS=ODmax/ODveh), an indicator of apoptotic response, was determined for each compound tested. EC50 values were determined either specifically by data analysis software, or by estimates based on the effective concentration range of each compound (ECR=min. effective dose-min. dose to peak effect). These FS and EC50 values for the tested compounds are listed above in Table 6.

Each structure is given as a SMILES string. pEC50, pIC50: −log10 of the molar value. Marks after values point to notes of the source that are not given here. Bounds are passed on as bounds.

On to `COc1cc(/C=C2/C(C)=C(CC(=O)NCCc3ccccc3)c3cc(F)ccc32)cc(OC)c1OC` [Example 39, (Z)-5-fluoro-2-methyl-1-(3,4,5-trimethoxybenzylidene)-3-(N-2-phenylethyl)-indenylacetamide], for which the pIC50 in experiment [1] was below 5.00. In addition, the “COX I % Inhibition (values marked *)” value at COX I is reported as 59* %. The “Morphology % Apoptotic Cells (1 μM)” value in experiment [2] is 31%. Further, in experiment [3], the pEC50 was below 5.00 and the “DNA Fragmentation FS (100 μM)” value came out at 2.
As to `COc1cc(/C=C2/C(C)=C(CC(=O)NCCCc3ccccc3)c3cc(F)ccc32)cc(OC)c1OC` [Example 40, (Z)-5-fluoro-2-methyl-1-(3,4,5-trimethoxybenzylidene)-3-(N-3-phenylpropyl)-indenylacetamide], the negative-log IC50 (pIC50) in experiment [1] is below 5.00. For the same molecule, at COX I, the “COX I % Inhibition (values marked *)” value was 34* %. Also, the “Morphology % Apoptotic Cells (1 μM)” value in experiment [2] is listed as below 20%. In addition, in experiment [3], the pEC50 was below 5.00 and the “DNA Fragmentation FS (100 μM)” value was below 2.
For `COc1cc(/C=C2/C(C)=C(CC(=O)NCCCCc3ccccc3)c3cc(F)ccc32)cc(OC)c1OC` [Example 41, (Z)-5-fluoro-2-methyl-1-(3,4,5-trimethoxybenzylidene)-3-(N-4-phenylbutyl)-indenylacetamide], the negative logarithm of the IC50 (pIC50) in experiment [1] was below 5.00. The “COX I % Inhibition (values marked *)” value at COX I was 59* %. For the same molecule, the “Morphology % Apoptotic Cells (1 μM)” value in experiment [2] is reported as 30%. In addition, in experiment [3], the pEC50 is below 5.00 and the “DNA Fragmentation FS (100 μM)” value is reported as below 2.
`COc1cc(/C=C2/C(C)=C(CC(=O)N[C@H](C)c3ccccc3)c3cc(F)ccc32)cc(OC)c1OC` [Example 42, (Z)-5-fluoro-2-methyl-1-(3,4,5-trimethoxybenzylidene)-3-(N-(R)-1-phenethyl)-indenylacetamide] showed a negative-log IC50 (pIC50) in experiment [1] of 6.16. For the same molecule, on COX I, the “COX I % Inhibition (values marked *)” value was 49* %. In addition, in experiment [2], the “Morphology % Apoptotic Cells (1 μM)” value is on record as below 20%. In experiment [3], the pEC50 was 5.52 and the “DNA Fragmentation FS (100 μM)” value is reported as 3.8.
The corresponding values for `COc1cc(/C=C2/C(C)=C(CC(=O)N[C@@H](C)c3ccccc3)c3cc(F)ccc32)cc(OC)c1OC` [Example 43, (Z)-5-fluoro-2-methyl-1-(3,4,5-trimethoxybenzylidene)-3-(N-(S)-1-phenylethyl)-indenylacetamide] are below 5.00, 36* %, 25%, below 5.00 and below 2.
The corresponding values for `COc1cc(/C=C2/C(C)=C(CC(=O)NCCCN(C)C)c3cc(F)ccc32)cc(OC)c1OC` [Example 44, (Z)-5-fluoro-2-methyl-1-(3,4,5-trimethoxybenzylidene)-3-(N-3-dimethylaminopropyl)-idenylacetamide] are below 5.00, 51* %, 25%, below 5.00 and 2.7.
For the molecule `COc1cc(/C=C2/C(C)=C(CC(=O)N[C@H](O)Cc3ccccc3)c3cc(F)ccc32)cc(OC)c1OC` [Example 45, (Z)-5-fluoro-2-methyl-1-(3,4,5-trimethoxybenzylidene)-3-(N-(R)-1-hydroxy-2-phenylethyl)-idenylacetamide], the pIC50 in experiment [1] is below 5.00. Besides, at COX I, the “COX I % Inhibition (values marked *)” value is given as 56* %. For the same molecule, in experiment [2], the “Morphology % Apoptotic Cells (1 μM)” value was determined as 40%. For the same molecule, in experiment [3], the pEC50 was below 5.00 and the “DNA Fragmentation FS (100 μM)” value was 3.4.
In experiment [1], `COc1cc(/C=C2/C(C)=C(CC(=O)N[C@@H](O)Cc3ccccc3)c3cc(F)ccc32)cc(OC)c1OC` [Example 46, (Z)-5-fluoro-2-methyl-1-(3,4,5-trimethoxybenzylidene)-3-(N-(S)-1-hydroxy-2-phenylethyl)-idenylacetamide] had a pIC50 below 5.00. For the same molecule, on COX I, the “COX I % Inhibition (values marked *)” value was 98* %. For the same molecule, the “Morphology % Apoptotic Cells (1 μM)” value in experiment [2] amounted to 20%. In addition, in experiment [3], the pEC50 was below 5.00 and the “DNA Fragmentation FS (100 μM)” value is on record as 4.8.
As to `COc1cc(/C=C2/C(C)=C(CC(=O)N(Cc3ccccc3)C(C)O)c3cc(F)ccc32)cc(OC)c1OC` (stereo not drawn) [Example 47, (Z)-5-fluoro-2-methyl-1-(3,4,5-trimethoxybenzylidene)-3-(N-benzyl-N-(1-hydroxyethyl))-idenylacetamide], the negative logarithm of the IC50 (pIC50) in experiment [1] is 5.39. In addition, the “COX I % Inhibition (values marked *)” value on COX I is reported as 37* %. The “Morphology % Apoptotic Cells (1 μM)” value in experiment [2] came out at 20%. For the same molecule, in experiment [3], the pEC50 was 5.24 and the “DNA Fragmentation FS (100 μM)” value is on record as 4.4.
The molecule `COc1cc(/C=C2/C(C)=C(CC(=O)NCc3ccccn3)c3cc(F)ccc32)cc(OC)c1OC` [Example 48] gave a pIC50 in experiment [1] of 6.30. Also, on COX I, the “COX I % Inhibition (100 μM)” value is on record as below 25%. Further, the “Morphology % Apoptotic Cells (1 μM)” value in experiment [2] was determined as 63%. Also, in experiment [3], the pEC50 was 6.30 and the “DNA Fragmentation FS (100 μM)” value is reported as 2.5.
With `COc1cc(/C=C2/C(C)=C(CC(=O)NCc3c(F)c(F)c(F)c(F)c3F)c3cc(F)ccc32)cc(OC)c1OC` [Example 51, (Z)-5-fluoro-2-methyl-1-(3,4,5-trimethoxybenzylidene)-3-(N-pentafluorobenzyl)-idenylacetamlde], the pIC50 in experiment [1] is 5.65. Moreover, the “COX I % Inhibition (values marked *)” value at COX I is <25* %. Also, in experiment [2], the “Morphology % Apoptotic Cells (1 μM)” value worked out at 40%. Also, in experiment [3], the negative logarithm of the EC50 (pEC50) was below 5.00 and the “DNA Fragmentation FS (100 μM)” value is below 2.
Regarding `COc1ccc(/C=C2/C(C)=C(CC(=O)NCc3ccccc3)c3cc(F)ccc32)c(OC)c1OC` [Example 57, (Z)-5-fluoro-2-methyl-1-(2,3,4-trimethoxybenzylidene)-3-(N-benzyl)-indenylacetamide], the pIC50 in experiment [1] was 6.59. Also, the “COX I % Inhibition (100 μM)” value at COX I was below 25%. The “Morphology % Apoptotic Cells (1 μM)” value in experiment [2] was found to be 73%. Besides, in experiment [3], the negative-log EC50 (pEC50) is 6.52 and the “DNA Fragmentation FS (100 μM)” value is recorded as below 2.
